From patent US9018214B2, “Bicyclic heterocycle compounds and their uses in therapy” (Astex Therapeutics Limited, priority 2011, dated 2015)
Counter-ions that a name gives are not always drawn. Like-named read-outs stand apart in the source and are kept apart here.

What was measured:
[1] = biological target: BIR3 domain of human cIAP-1 (residues 267-363) (Homo sapiens (Human), UniProt Q13490); experiment: cIAP-1 in vitro competitive displacement binding assay (fluorescence polarization; Probe A AVPIK(5&6FAM)-amide or Probe B AbuRPFK(5&6FAM)-amide); conditions: for inhibition at […] / inhibition at 0.01 µM: 3 h, read-out: IC50 or PI cIAP1: PI
[2] = tested on: EVSA-T (human breast carcinoma); experiment: Anti-proliferative activity, Alamar Blue assay, EVSA-T; type: cell-based; conditions: Homo sapiens, EVSA-T
[3] = biological target: BIR3 domain of human XIAP (residues 252-350) (Homo sapiens (Human), UniProt P98170); experiment: XIAP in vitro competitive displacement binding assay (fluorescence polarization); conditions: for IC50: read-out: IC50 or PI Xiap: IC50; for inhibition at 0.04 µM: 1 h, read-out: IC50 or PI Xiap: PI
[4] = Probe B AbuRPFK(5&6FAM)-amide, read-out: IC50 or PI cIAP1: IC50
[5] = 72 hours, Alamar Blue, read-out: EVSA-T prolif (EC50)
[6] = read-out: IC50 or PI cIAP1: IC50
[7] = 72 h, read-out: EVSA-T prolif (EC50)

Row | IC50 [1, 4] | EC50 [2, 5] | IC50 [1] | SMILES | IC50 [3] | EC50 [2, 7] | further results
1 | 14 nM | 450 nM | – | C[C@@H]1CN(CC(=O)N2CC(C)(C)c3cnc(Cc4ccccc4)cc32)[C@@H](C(=O)N2CCC2)CN1 [Example 100, 2-[(2R,5R)-2-[(Azetidin-1-yl)carbonyl]-5-methyl-piperazin-1-yl]-1-{6-benzyl-3,3-dimethyl-1H,2H,3H-pyrrolo[3,2-c]pyridin-1-yl}ethan-1-one, hydrochloride salt] | 120 nM | – | –
2 | 13 nM | 450 nM | < 1000 nM | COC[C@H]1CN[C@H](C)CN1CC(=O)N1CC(C)(c2cccnc2)c2ccc(Cc3ccccc3)cc21 (stereo partly drawn) [Example 163, 1-[6-Benzyl-3-methyl-3-(pyridin-3-yl)-2,3-dihydro-1H-indol-1-yl]-2-[(2R,5R)-2-(methoxymethyl)-5-methylpiperazin-1-yl]ethan-1-one hydrochloride] | 160 nM | – | –
3 | 35 nM | 1900 nM | – | COC[C@H]1CN[C@H](C)CN1CC(=O)N1CC(C)(C)c2cnc(Cc3ccccc3Cl)cc21 [Example 78, 1-{6-[(2-Chlorophenyl)methyl]-3,3-dimethyl-1H,2H,3H-pyrrolo[3,2-c]pyridin-1-yl}-2-[(2R,5R)-2-(methoxy-methyl)-5-methyl-piperazin-1-yl]ethan-1-one hydrochloride salt] | 530 nM | – | –
4 | 110 nM | 1700 nM | < 1000 nM | Cc1cnn(C[C@H]2CN[C@H](C)CN2CC(=O)N2CC3(Cc4ccccc4C3)c3ccc(C#N)cc32)c1 [Example 161, 1′-{2-[(2R,5R)-5-Methyl-2-[(4-methyl-1H-pyrazol-1-yl)methyl]piperazin-1-yl]acetyl}-1,1′,2′,3-tetrahydrospiro[indene-2,3′-indole]-6′-carbonitrile] | 60 nM | – | –
5 | – | – | – | C[C@@H]1CN(CC(=O)N2CC(C)(C)c3ncc(Cc4ccc(F)cc4F)cc32)[C@@H](CN2CCOCC2)CN1 [Example 236, 1-{6-[(2,4-Difluorophenyl)methyl]-3,3-dimethyl-1H,2H,3H-pyrrolo[3,2-b]pyridin-1-yl}-2-[(2R,5R)-5-methyl-2-(morpholin-4-ylmethyl)piperazin-1-yl]ethan-1-one dihydrochloride] | 58 nM | 7.8 nM | inhibition at […] [1]: 96%
6 | – | – | – | C[C@@H]1CN(CC(=O)N2CC(C)(C)c3cnc(Cc4ccccc4)cc32)[C@@H](C(=O)N2CCCC2)CN1 [Example 131, 1-{6-Benzyl-3,3-dimethyl-1H,2H,3H-pyrrolo[3,2-c]pyridin-1-yl}-2-[(2R,5R)-5-methyl-2-[(pyrrolidin-1-yl)carbonyl]piperazin-1-yl]ethan-1-one dihydrochloride] | 130 nM | 88 nM | inhibition at 0.01 µM [1]: 63%
7 | – | – | – | COC[C@H]1CN[C@H](C)CN1CC(=O)N1CC(C)(C)c2cnc(C3CCCCC3)cc21 [Example 118, 1-{6-Cyclohexyl-3,3-dimethyl-1H,2H,3H-pyrrolo[3,2-c]pyridin-1-yl}-2-[(2R,5R)-2-(methoxymethyl)-5-methylpiperazin-1-yl]ethan-1-one dihydrochloride] | 710 nM | 3400 nM | IC50 [1, 6]: 240 nM
8 | – | – | – | C[C@@H]1CN(CC(=O)N2CC(C)(C)c3cnc(Cc4ccccc4)cc32)[C@@H](C(=O)N2CCCCC2)CN1 [Example 133, 1-{6-Benzyl-3,3-dimethyl-1H,2H,3H-pyrrolo[3,2-c]pyridin-1-yl}-2-[(2R,5R)-5-methyl-2-[(piperidin-1-yl)carbonyl]piperazin-1-yl]ethan-1-one dihydrochloride] | 91 nM | 110 nM | inhibition at 0.01 µM [1]: 71%
9 | – | – | – | C[C@@H]1CN(CC(=O)N2CC(C)(C)c3cnc(C(F)(F)c4ccccc4)cc32)[C@@H](CN2C(=O)CCC2=O)CN1 [Example 218, 1-{[(2R,5R)-1-(2-{6-[Difluoro(phenyl)methyl]-3,3-dimethyl-1H,2H,3H-pyrrolo[3,2-c]pyridin-1-yl}-2-oxoethyl)-5-methylpiperazin-2-yl]methyl}pyrrolidine-2,5-dione dihydrochloride] | 61 nM | 65 nM | inhibition at […] [1]: 78%
10 | – | – | – | COC[C@H]1CN[C@H](C)CN1CC(=O)N1CC(C)(C)c2ccc(S(=O)(=O)Cc3ccccc3)cc21 [Example 70, 1-(3,3-Dimethyl-6-phenylmethane-sulfonyl-2,3-dihydro-indol-1-yl)-2-((2R,5R)-2-methoxymethyl-5-methyl-piperazin-1-yl)-ethanone dihydrochloride salt] | 380 nM | 7900 nM | IC50 [1, 6]: 820 nM; EC50 ([2]; 72 h, read-out: EC50, inhibition of cell growth): < 10000 nM
11 | 16 nM | 780 nM | – | COC[C@H]1CN[C@H](C)CN1CC(=O)N1CC2(CN(C(C)=O)C2)c2ccc(Cc3ccccc3)cc21 [Example 76, 1-{1-Acetyl-6′-benzyl-1′,2′-dihydrospiro[azetidine-3,3′-indole]-1′-yl}-2-[(2R,5R)-2-(methoxymethyl)-5-methylpiperazin-1-yl]ethan-1-one hydrochloride salt] | 64 nM | – | –
12 | 18 nM | 270 nM | < 1000 nM | C[C@@H]1CN(CC(=O)N2CC(C)(C)c3cnc(Oc4ccccc4Cl)cc32)[C@@H](Cn2cc(F)cn2)CN1 [Example 177, 1-[6-(2-Chlorophenoxy)-3,3-dimethyl-1H,2H,3H-pyrrolo[3,2-c]pyridin-1-yl]-2-[(2R,5R)-2-[(4-fluoro-1H-pyrazol-1-yl)methyl]-5-methylpiperazin-1-yl]ethan-1-one hydrochloride] | 49 nM | – | –

Row | SMILES | IC50 [1, 4] | EC50 [2, 5] | IC50 [1] | IC50 [3] | EC50 [2, 7] | further results
13 | CC[C@@H]1COCCN1C[C@H]1CN[C@H](C)CN1CC(=O)N1CC(C)(C)c2ncc(C(F)(F)CC)cc21 [Example 255, 1-[6-(1,1-Difluoropropyl)-3,3-dimethyl-1H,2H,3H-pyrrolo[3,2-b]pyridin-1-yl]-2-[(2R,5R)-2-{[(3R)-3-ethylmorpholin-4-yl]methyl}-5-methylpiperazin-1-yl]ethan-1-one dihydrochloride] | – | – | < 1000 nM | – | 32 nM | IC50 [1, 6]: 14 nM; inhibition at 0.04 µM [3]: 49%
14 | C[C@@H]1CN(CC(=O)N2CC(C)(C)c3cnc(Oc4ccccc4Cl)cc32)[C@@H](C(=O)N2CCOCC2)CN1 [Example 165, 1-[6-(2-Chlorophenoxy)-3,3-dimethyl-1H,2H,3H-pyrrolo[3,2-c]pyridin-1-yl]-2-[(2R,5R)-5-methyl-2-[(morpholin-4-yl)carbonyl]piperazin-1-yl]ethan-1-one dihydrochloride] | – | – | < 1000 nM | – | 650 nM | IC50 [1, 6]: 14 nM; inhibition at 0.04 µM [3]: 65%
15 | C[C@@H]1CN(CC(=O)N2CC(C)(C)c3cnc(Cc4ccc(F)cc4)cc32)[C@@H](CN2CCOC[C@H]2C)CN1 [Example 251, 1-{6-[(4-Fluorophenyl)methyl]-3,3-dimethyl-1H,2H,3H-pyrrolo[3,2-c]pyridin-1-yl}-2-[(2R,5R)-5-methyl-2-{[(3R)-3-methylmorpholin-4-yl]methyl}piperazin-1-yl]ethan-1-one dihydrochloride] | – | 0.65 nM | – | – | – | inhibition at […] [1]: 99%; inhibition at 0.04 µM [3]: 68%
16 | C[C@@H]1CN(CC(=O)N2CC(C)(C)c3ncc(Cc4ccc(F)cc4F)cc32)[C@@H](CN2CCOC[C@H]2C)CN1 [Example 264, 1-[6-(2,4-Difluoro-benzyl)-3,3-dimethyl-2,3-dihydro-pyrrolo[3,2-b]pyridin-1-yl]-2-[(2R,5R)-5-methyl-2-((R)-3-methyl-morpholin-4-ylmethyl)-piperazin-1-yl]-ethanone, dihydrochloride] | – | 1 nM | – | – | – | inhibition at […] [1]: 98%; inhibition at 0.04 µM [3]: 68%
